Reference: patent US11878966B2, “Substituted 4-benzyl and 4-benzoyl piperidine derivates” (89BIO LTD, priority 2015, dated 2024)

Each compound was assayed against T1, recombinant human baculovirus-expressed GST-tagged FASN (Homo sapiens, UniProt P49327) (assay: FASN enzyme activity assay: fluorescence-based detection of CoA with CPM). Conditions: 5 nM FASN, 150 μM NADPH, 10 μM acetyl-CoA, 25 μM malonyl-CoA, 90 minutes incubation.
T1 construct: GST; host or cells: baculovirus expression system (insect cells implied)
T1 sequence (P49327 whole entry): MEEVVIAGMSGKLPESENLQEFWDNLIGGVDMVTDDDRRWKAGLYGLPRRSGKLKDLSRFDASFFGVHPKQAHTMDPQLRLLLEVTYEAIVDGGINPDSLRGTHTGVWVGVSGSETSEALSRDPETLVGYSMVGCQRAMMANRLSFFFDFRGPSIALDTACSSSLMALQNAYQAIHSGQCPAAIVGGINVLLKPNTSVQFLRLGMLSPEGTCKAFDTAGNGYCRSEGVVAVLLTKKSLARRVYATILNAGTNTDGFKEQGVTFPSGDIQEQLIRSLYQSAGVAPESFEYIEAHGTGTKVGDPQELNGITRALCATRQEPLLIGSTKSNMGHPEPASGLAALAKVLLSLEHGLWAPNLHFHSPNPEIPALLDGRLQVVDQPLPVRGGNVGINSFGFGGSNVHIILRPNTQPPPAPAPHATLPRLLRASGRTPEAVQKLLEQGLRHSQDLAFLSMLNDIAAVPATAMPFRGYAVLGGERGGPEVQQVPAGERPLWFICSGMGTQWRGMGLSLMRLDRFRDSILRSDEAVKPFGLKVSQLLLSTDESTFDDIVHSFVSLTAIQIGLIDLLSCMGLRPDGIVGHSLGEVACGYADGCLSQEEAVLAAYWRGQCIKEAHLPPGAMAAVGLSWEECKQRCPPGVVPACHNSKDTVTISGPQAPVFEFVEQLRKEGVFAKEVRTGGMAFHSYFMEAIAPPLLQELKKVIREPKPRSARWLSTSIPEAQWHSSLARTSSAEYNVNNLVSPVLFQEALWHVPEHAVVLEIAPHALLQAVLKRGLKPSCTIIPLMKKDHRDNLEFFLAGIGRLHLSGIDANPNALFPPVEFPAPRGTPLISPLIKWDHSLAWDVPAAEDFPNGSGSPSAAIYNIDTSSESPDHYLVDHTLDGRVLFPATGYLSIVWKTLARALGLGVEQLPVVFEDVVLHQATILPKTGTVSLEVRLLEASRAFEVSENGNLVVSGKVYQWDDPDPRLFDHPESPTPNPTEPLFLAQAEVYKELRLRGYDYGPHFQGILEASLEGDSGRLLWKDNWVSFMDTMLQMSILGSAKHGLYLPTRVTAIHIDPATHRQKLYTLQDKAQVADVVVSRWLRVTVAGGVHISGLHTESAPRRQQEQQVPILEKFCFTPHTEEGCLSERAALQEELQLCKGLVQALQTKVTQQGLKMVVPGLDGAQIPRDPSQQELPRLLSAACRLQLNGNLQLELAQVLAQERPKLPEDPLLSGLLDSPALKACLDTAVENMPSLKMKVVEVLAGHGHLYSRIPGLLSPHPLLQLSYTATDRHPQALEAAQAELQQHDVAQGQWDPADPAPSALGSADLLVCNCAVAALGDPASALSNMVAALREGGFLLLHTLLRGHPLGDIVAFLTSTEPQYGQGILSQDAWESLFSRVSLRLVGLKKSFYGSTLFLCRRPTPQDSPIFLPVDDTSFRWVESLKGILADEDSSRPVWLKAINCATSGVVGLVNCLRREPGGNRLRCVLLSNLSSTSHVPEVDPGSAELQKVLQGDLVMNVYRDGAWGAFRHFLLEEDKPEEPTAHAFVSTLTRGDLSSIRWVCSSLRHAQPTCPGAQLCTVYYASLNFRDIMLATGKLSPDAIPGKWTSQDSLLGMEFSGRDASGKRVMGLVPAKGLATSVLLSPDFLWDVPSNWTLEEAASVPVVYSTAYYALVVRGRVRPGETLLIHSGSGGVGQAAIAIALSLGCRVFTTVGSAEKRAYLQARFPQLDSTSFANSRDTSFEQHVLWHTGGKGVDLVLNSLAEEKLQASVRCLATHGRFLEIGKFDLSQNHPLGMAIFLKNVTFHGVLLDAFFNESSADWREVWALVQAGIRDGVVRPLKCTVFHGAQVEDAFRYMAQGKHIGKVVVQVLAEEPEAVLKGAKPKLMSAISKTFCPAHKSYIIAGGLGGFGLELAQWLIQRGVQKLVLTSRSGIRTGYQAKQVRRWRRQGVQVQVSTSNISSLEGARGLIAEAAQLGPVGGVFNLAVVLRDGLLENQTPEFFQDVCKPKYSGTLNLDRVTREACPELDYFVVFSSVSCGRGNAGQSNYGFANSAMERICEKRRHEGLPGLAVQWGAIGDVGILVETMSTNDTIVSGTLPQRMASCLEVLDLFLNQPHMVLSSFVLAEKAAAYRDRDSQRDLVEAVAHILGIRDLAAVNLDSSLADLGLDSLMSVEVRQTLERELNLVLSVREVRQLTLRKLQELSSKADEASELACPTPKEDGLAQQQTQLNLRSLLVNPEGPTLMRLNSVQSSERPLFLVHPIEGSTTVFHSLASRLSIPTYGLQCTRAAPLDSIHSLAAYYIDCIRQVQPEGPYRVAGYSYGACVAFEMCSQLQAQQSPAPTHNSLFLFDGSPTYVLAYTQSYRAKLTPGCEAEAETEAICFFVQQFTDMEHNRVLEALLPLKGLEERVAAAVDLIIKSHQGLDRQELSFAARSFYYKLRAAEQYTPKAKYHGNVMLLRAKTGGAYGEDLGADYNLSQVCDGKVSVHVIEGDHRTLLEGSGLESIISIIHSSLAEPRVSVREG
Type: biochemical
In short: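 IC50 values were fitted (variable-slope sigmoid) to percent inhibition from CPM fluorescence (390/530 nm) reporting free CoA after a 30 min labelling step. The reaction ran 90 min after malonyl-CoA (25 μM) addition, with 10 μM acetyl-CoA, 150 μM NADPH, 5 nM recombinant GST-FASN, 50 mM HEPES pH 7.5 and 0.5% DMSO.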

`CCC(=O)N1CCC(C(=O)c2ccc(-c3ccc4cnccc4c3)cc2)C1` (stereo not shown) [Example 133, 1-[3-(4-Isoquinolin-6-yl-benzoyl)-pyrrolidin-1-yl]-propan-1-one] and `CCC(=O)N1CCC(C(C)(O)c2ccc(-c3ccc4cnccc4c3)cc2)C1` (stereo not shown) [Example 134, 1-{3-[1-Hydroxy-1-(4-isoquinolin-6-yl-phenyl)-ethyl]-pyrrolidin-1-yl}-propan-1-one] fall in the same range of IC50: 1000 to 10000 nM for the first, 1000 to 10000 nM for the second.

`CC(C)C(=O)N1CCC(C2(c3ccc(-c4ccc(CN(C)C)cc4)cc3)OCCO2)CC1` [Example 135, 1-{4-[2-(4′-Dimethylaminomethyl-biphenyl-4-yl)-1,3-dioxolan-2-yl]piperidin-1-yl}-2-methyl-propan-1-one] and `CCC(=O)N1CCC(C2(c3ccc(-c4ccc(CN(C)C)cc4)cc3)OCCO2)CC1` [Example 136, 1-{4-[2-(4′-Dimethylaminomethyl-biphenyl-4-yl)-1,3-dioxolan-2-yl]-piperidin-1-yl}-propan-1-one] fall in the same range of IC50: 1000 to 10000 nM for the first, 1000 to 10000 nM for the second.

Compared with `CN(C)Cc1ccc(-c2ccc(C3(C4CCN(C(=O)C5CC5)CC4)OCCO3)cc2)cc1` [Example 137, Cyclopropyl-{4-[2-(4′-dimethylaminomethyl-biphenyl-4-yl)-1,3-dioxolan-2-yl]-piperidin-1-yl}-methanone], `O=C(C1CC1)N1CCC(C2(c3ccc(-c4cnc5ccccc5c4)cc3)OCCO2)CC1` [Example 141, Cyclopropyl-(4-[2-(4-quinolin-3-yl-phenyl)-1,3-dioxolan-2-yl]-piperidin-1-yl)-methanone] is lower in IC50: 1000 to 10000 nM for the first, 100 to 999 nM for the second. The second is the more potent here.

`CCC(=O)N1CCC(C(=O)c2c(F)cc(-c3ccc4cnccc4c3)cc2F)CC1` [Example 138, 1-[4-(2,6-Difluoro-4-isoquinolin-6-yl-benzoyl)-piperidin-1-yl]-propan-1-one] and `CCC(=O)N1CCC(C(=O)c2ccc(-c3ccc4cccnc4c3)cc2F)CC1` [Example 142, 1-[4-(2-Fluoro-4-quinolin-7-yl-benzoyl)-piperidin-1-yl]-propan-1-one] fall in the same range of IC50: 100 to 999 nM for the first, 100 to 999 nM for the second.

First: CCC(=O)N1CCC(C2(c3ccc(-c4cnc5ccccc5c4)cc3)OCCO2)CC1 [Example 139, 1-{4-[2-(4-Quinolin-3-yl-phenyl)-1,3-dioxolan-2-yl]-piperidin-1-yl}-propan-1-one]
Second: CC(C)C(=O)N1CCC(C2(c3ccc(-c4cnc5ccccc5c4)cc3)OCCO2)CC1 [Example 140, 2-Methyl-1-{4-[2-(4-quinolin-3-yl-phenyl)-1,3-dioxolan-2-yl]-piperidin-1-yl}-propan-1-one]
The IC50 of the first is lower: 1 to 99 nM for the first, 100 to 999 nM for the second. The first is the more potent here.

First: CCC(=O)N1CCC(C(=O)c2ccc(-c3cnc4ccccc4c3)cc2F)CC1 [Example 143, 1-[4-(2-Fluoro-4-quinolin-3-yl-benzoyl)piperidin-1-yl]propan-1-one]
Second: COC(=O)N1CCC(C(=O)c2ccc(-c3cnc4ccccc4c3)cc2F)CC1 [Example 144, 4-(2-Fluoro-4-quinolin-3-yl-benzoyl)piperidine-1-carboxylic Acid Methyl Ester]
The IC50 of the first is lower: 1 to 99 nM for the first, 1000 to 10000 nM for the second.

First: O=C(N1CCC(O)(Cc2ccc(-c3cc4ccccc4cn3)cc2)CC1)N1CCCO1 [Example 145, (4-hydroxy-4-(4-(isoquinolin-3-yl)benzyl)piperidin-1-yl)(isoxazolidin-2-yl)methanone]
Second: O=C([C@H]1CCCO1)N1CCC(O)(Cc2ccc(-c3cc4ccccc4cn3)cc2)CC1 [Example 146, [4-Hydroxy-4-(4-isoquinolin-3-yl-benzyl)-piperidin-1-yl]-(R)-tetrahydro-furan-2-yl-methanone]
The IC50 of the first is higher: 1000 to 10000 nM for the first, 100 to 999 nM for the second. The second is the more potent here.

`CCC(=O)N1CCC(F)(Cc2ccc(-c3cnc4ccccc4c3)cc2)CC1` [Example 161, 1-(4-fluoro-4-(4-(quinolin-3-yl)benzyl)piperidin-1-yl)propan-1-one] and `O=C(C1CC1)N1CCC(F)(Cc2ccc(-c3cnc4ccccc4c3)cc2)CC1` [Example 171, Cyclopropyl(4-fluoro-4-(4-(quinolin-3-yl)benzyl)piperidin-1-yl)methanone] fall in the same range of IC50: 1 to 99 nM for the first, 1 to 99 nM for the second.

First: CCC(=O)N1CC=C(Cc2ccc(-c3cnc4ccccc4c3)cc2)CC1 [Example 162, 1-(4-(4-(quinolin-3-yl)benzyl)-5,6-dihydropyridin-1(2H)-yl)propan-1-one]
Second: O=C(C1CC1)N1CC=C(Cc2ccc(-c3cnc4ccccc4c3)cc2)CC1 [Example 172, Cyclopropyl(4-(4-(quinolin-3-yl)benzyl)-5,6-dihydropyridin-1(2H)-yl)methanone]
The IC50 of the first is lower: 1 to 99 nM for the first, 100 to 999 nM for the second.

First: CCC(=O)N1CCC(F)(Cc2ccc(-c3ccc4cccnc4c3)cc2)CC1 [Example 163, 1-(4-fluoro-4-(4-(quinolin-7-yl)benzyl)piperidin-1-yl)propan-1-one]
Second: O=C(C1CC1)N1CCC(F)(Cc2ccc(-c3ccc4cccnc4c3)cc2)CC1 [Example 173, Cyclopropyl(4-fluoro-4-(4-(quinolin-7-yl)benzyl)piperidin-1-yl)methanone]
The IC50 of the first is lower: 1 to 99 nM for the first, 100 to 999 nM for the second.

`CCC(=O)N1CC=C(Cc2ccc(-c3ccc4cccnc4c3)cc2)CC1` [Example 164, 1-(4-(4-(quinolin-7-yl)benzyl)-5,6-dihydropyridin-1(2H)-yl)propan-1-one] and `O=C(C1CC1)N1CC=C(Cc2ccc(-c3ccc4cccnc4c3)cc2)CC1` [Example 174] fall in the same range of IC50: 100 to 999 nM for the first, 100 to 999 nM for the second.

`CCC(=O)N1CCC(F)(Cc2ccc(-c3ccc4cnccc4c3)cc2)CC1` [Example 165, 1-(4-fluoro-4-(4-(isoquinolin-6-yl)benzyl)piperidin-1-yl)propan-1-one] and `O=C(C1CC1)N1CCC(F)(Cc2ccc(-c3ccc4cnccc4c3)cc2)CC1` [Example 175, Cyclopropyl(4-fluoro-4-(4-(isoquinolin-6-yl)benzyl)piperidin-1-yl)methanone] fall in the same range of IC50: 1 to 99 nM for the first, 1 to 99 nM for the second.

`CCC(=O)N1CC=C(Cc2ccc(-c3ccc4cnccc4c3)cc2)CC1` [Example 166, 1-(4-(4-(isoquinolin-6-yl)benzyl)-5,6-dihydropyridin-1(2H)-yl)propan-1-one] and `O=C(C1CC1)N1CC=C(Cc2ccc(-c3ccc4cnccc4c3)cc2)CC1` [Example 176, Cyclopropyl(4-(4-(isoquinolin-6-yl)benzyl)-5,6-dihydropyridin-1(2H)-yl)methanone] fall in the same range of IC50: 100 to 999 nM for the first, 100 to 999 nM for the second.

`CCC(=O)N1CCC(F)(Cc2ccc(-c3cncc4ccccc34)cc2)CC1` [Example 167, 1-(4-fluoro-4-(4-(isoquinolin-4-yl)benzyl)piperidin-1-yl)propan-1-one] and `O=C(C1CC1)N1CCC(F)(Cc2ccc(-c3cncc4ccccc34)cc2)CC1` [Example 177, Cyclopropyl(4-fluoro-4-(4-(isoquinolin-4-yl)benzyl)piperidin-1-yl)methanone] fall in the same range of IC50: 1 to 99 nM for the first, 1 to 99 nM for the second.

Compared with `CCC(=O)N1CC=C(Cc2ccc(-c3cncc4ccccc34)cc2)CC1` [Example 168, 1-(4-(4-(isoquinolin-4-yl)benzyl)-5,6-dihydropyridin-1(2H)-yl)propan-1-one], `CCC(=O)N1CC=C(Cc2ccc(-c3ccc4occc4c3)cc2)CC1` [Example 170, 1-(4-(4-(benzofuran-5-yl)benzyl)-5,6-dihydropyridin-1(2H)-yl)propan-1-one] is lower in IC50: 1000 to 10000 nM for the first, 1 to 99 nM for the second.

`CCC(=O)N1CCC(F)(Cc2ccc(-c3ccc4occc4c3)cc2)CC1` [Example 169, 1-(4-(4-(benzofuran-5-yl)benzyl)-4-fluoropiperidin-1-yl)propan-1-one] was tested, and the IC50 was 100 to 999 nM.
